Results on one compound are retold here after patent US9000015B2, “Compounds for the treatment of addiction” (Gilead Sciences, Inc., priority 2011, dated 2015).

In experiment [1] the test system is male Sprague Dawley (SD) rats. Briefly: Rat cocaine cue reinstatement. Type of experiment: in vivo. As to conditions: for inhibition of cocaine cue reinstatement compared to vehicle: 1 hr before session. On the procedure:
Training of male Sprague Dawley (SD) rats had 3 separate stages. First, during self administration, animals were trained to lever press for cocaine with presentation of concomitant cues associated with drug delivery. Rats that reached criteria for addiction were included in the study. Afterward, during cue extinction, cocaine-cue dependent behavior was extinguished. Lastly, during cocaine cue reinstatement, the effect of compounds was tested on lever presses upon cue presentation (FIG. 2).
Rats were trained to self administer i.v. cocaine (0.35 mg/kg/injection) daily (Monday to Friday) in standard operant chambers with retractable levers (Coulbourn Instruments, PA). During the daily 2 hr session, rats received a 0.05 ml infusion of 0.35 mg/kg cocaine every time the active lever was pressed. A cue light and tone turned on for 2 sec together with activation of a pump that delivered the cocaine solution. Rats were required to maintain an infusion rate of ≧20+ per day for at least 10 days before being moved to extinction training.
During extinction sessions lever presses no longer produced cocaine infusion and cue light/tone presentation was absent. Rats received a maximum of 15 extinction sessions.
On the next day after reaching extinction criteria, rats were treated orally with vehicle (Formulation 2B: 25% PEG400/5% Vit E TPGS/1% SLS/69% water with 0.5% Methocel) or drug (compound of Example 2 or compound of Example 5) before the cue reinstatement session. Cue reinstatement began with a tone and cue light. This 2 hr session was identical to the self-administration session (cue light and tone present upon active lever press) except that no cocaine was delivered. The number of active lever presses was compared to extinction lever responding. This is considered a measure of reinstatement. The next day, rats were returned to extinction sessions for at least 2 or 3 more sessions. Rats then received a second and last reinstatement session with an opposite treatment to the one received on the first reinstatement session (vehicle or drug treatment). […] The light/tone presentation triggers this response and it is interpreted as a measure of reinstatement even though cocaine is not available.

For a further experiment, the target named is HMAO-B (Homo sapiens (Human), UniProt P27338). As to the kind of experiment: MAO-B assay (luminogenic MAO substrate). Type of experiment: biochemical. As to conditions: microsome MAO-B, 16 uM substrate. On the procedure: (§1) MAO assays included luminogenic MAO substrate, reaction buffers, Luciferin Detection and the reconstitution buffer with eserase. Standard MAO reaction mixtures included microsome contained MAO-A (2 ug) or MAO-B (10 ug), 160 uM substrate for MAO-A or 16 uM substrate for MAO-B, MAO-A buffer (100 mM Hepes buffer, pH 7.5, 5% glycerol) or MAO-B buffer (100 mM Hepes, pH 7.5, 5% glycerol, 10% dimethyl sulfoxide) in a final volume of 30 ul. After 20 minutes of pre-incubation of the enzyme with compounds, the reaction was initiated by adding enzyme substrate and the reaction was allowed to proceed for 60 minutes. Reconstituted Luciferin Detection Reagent (30 ul) was then added is added to simultaneously stop the MAO reaction and convert the methyl ester derivative to luciferin and produce light. The amount of light produced is directly proportional to the activity of MAO. The mixtures were further incubated for 20 minutes and activity of the enzyme was determined using Perkin-Elmer Envision Reader.
HMAO-B, sequence (P27338 whole entry): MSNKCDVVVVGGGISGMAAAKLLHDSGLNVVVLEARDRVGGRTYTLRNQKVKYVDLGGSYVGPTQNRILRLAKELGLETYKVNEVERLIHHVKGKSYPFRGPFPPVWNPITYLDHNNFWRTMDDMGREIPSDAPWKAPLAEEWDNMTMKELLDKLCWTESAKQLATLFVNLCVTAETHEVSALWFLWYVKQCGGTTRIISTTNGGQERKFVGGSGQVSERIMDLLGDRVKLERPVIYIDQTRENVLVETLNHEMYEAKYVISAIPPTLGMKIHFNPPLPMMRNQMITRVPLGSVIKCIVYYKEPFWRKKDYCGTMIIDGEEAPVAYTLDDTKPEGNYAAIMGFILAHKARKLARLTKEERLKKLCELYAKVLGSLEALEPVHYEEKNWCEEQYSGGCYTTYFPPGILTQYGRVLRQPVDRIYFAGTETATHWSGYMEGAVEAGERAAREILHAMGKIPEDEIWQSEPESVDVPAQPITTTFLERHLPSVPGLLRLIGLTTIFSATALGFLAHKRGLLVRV
(§2) Note: […] refers to the concentration of a compound that inhibits a reaction by 50%. In the case of competitive inhibition, IC50=2Ki when the substrate is present at the Km concentration, as per the relationship: Ki=IC50/[1+(substrate concentration/Km)].

For experiment [2], the system named is Male SD rats. Briefly: Rat nicotine self administration, 7-day chronic treatment. Type of experiment: in vivo. The procedure: (§3) Male SD rats were trained to self administer i.v. nicotine (0.03 mg/kg/inj) daily (Monday to Friday) in standard operant chambers with retractable levers (MED Associates, Inc) as previously published (Levin et al., 2003; Levin et al., 2007). During the daily 45 min session, rats received 0.05 ml infusion of 0.03 mg/kg/infusion of nicotine every time the active lever was pressed. A cue light and tone turned on for 0.5 sec together with the activation of a pump that delivered the nicotine solution. Daily sessions were run for at least 10 days before the initiation of drug testing. Solutions of compounds of Example 2 and Example 5 were prepared fresh daily in Formulation 2B: 25% PEG400/5% Vit E TPGS/1% SLS/69% water with 0.5% Methocel) for oral dosing. Compound of Example 2 doses were administered in a counterbalanced design for testing 1 hr before each nicotine session. Every rat received all drug doses and vehicle in a randomly assigned order. The oral drug administrations were made twice per week.
Upon completion of the acute compound of Example 5 treatment study, the same animals were used to test the effect of 7-day chronic oral administration of compound of Example 5 in the nicotine self administration model. Rats were treated orally with compound of Example 5 (5, 10 or 30 mg-eq/kg) or vehicle 1 hr before nicotine self administration session for 7 consecutive days. […] Similar to the acute treatment, the 5 mg-eq/kg dose was ineffective (FIG. 7). […] Animals in nicotine self administration studies had to reach pre defined criteria (e.g. rat strain, minimum number of nicotine infusions, consistent baseline nicotine self administration throughout the study, patent iv catheters, etc.) to be included in analysis.

A further experiment addresses HMAO-A (Homo sapiens (Human), UniProt P21397). Briefly: MAO-A assay (luminogenic MAO substrate). Type of experiment: biochemical. As to conditions: microsome MAO-A, 160 uM substrate. The procedure:
as §1, §2

The target in a further experiment is recombinant human ALDH2 (Homo sapiens (Human), UniProt P05091). Briefly: ALDH2 assay (NADH formation). Type of experiment: biochemical. As to conditions: 60 min pre-incubation, 150 uM formaldehyde, 2.5 mM NAD+; read-out: IC50 HALDH2. The procedure:
Standard ALDH2 reaction mixtures contained 150 uM formaldehyde, 2.5 mM NAD^+, 10 mM MgCl2 and 10 nM recombinant human ALDH2 in 50 mM Hepes buffer, pH 7.4, 0.01% Tween 20 in a final volume of 50 ul using 384-well plates. After 60 min of pre-incubation of compound with ALDH2 and formaldehyde, the reaction was started by adding NAD+ and the reaction mixture was allowed to proceed for 90 minutes. Activity of the enzyme was determined by monitoring NADH formation using Perkin-Elmer Envision Reader with excitation and emission wavelengths set at 340 and 460 nm, respectively.
as §2

Experiment [3] has as its system Alcohol-preferring (iP) male rats. Briefly: Rat alcohol self administration. Type of experiment: in vivo. As to conditions: 1 hr before session, vs vehicle. An excerpt:
Alcohol-preferring (iP) male rats were trained to daily (Monday to Friday) self-administer alcohol (10% v/v) under operant conditions. A fixed-ratio of 3 (FR3), where rats had to press a lever 3 times to get one drop of alcohol during 20-min sessions was used (Cowen et al, 2005a; Cowen et al., 2005b; Lawrence et al., 2006). Availability of alcohol was conditioned by the presence of an olfactory cue (2 drops of vanilla essence, placed on the bedding of the operant chamber directly under the active lever), plus a 1-sec light stimulus when FR3 was obtained. For each session, total alcohol and water responses were recorded. Following acquisition of lever pressing behavior and stable alcohol self-administration, rats were administered oral vehicle or compound of Example 5 (5, 10 and 30 mg-eq/kg) 1 hr before each session in a counterbalanced order. Every rat received all drug doses and vehicle once per week in a randomly assigned order.

Experiment [4] relates to Male SD rats. As to the kind of experiment: Rat nicotine self administration, acute treatment. As to conditions: independent groups. Type of experiment: in vivo. The procedure: as §3
Compound of Example 5 was tested in a study using 4 independent groups. Each group received either oral vehicle or 1 of the 3 doses of compound of Example 5 (5, 10 or 30 mg-eq/kg). […] The 5 mg/kg dose was ineffective.

pIC50: −log10 of the molar value. A value given as a limit tells only on which side of the number the result lay.

recombinant human ALDH2, sequence (P05091 18-517): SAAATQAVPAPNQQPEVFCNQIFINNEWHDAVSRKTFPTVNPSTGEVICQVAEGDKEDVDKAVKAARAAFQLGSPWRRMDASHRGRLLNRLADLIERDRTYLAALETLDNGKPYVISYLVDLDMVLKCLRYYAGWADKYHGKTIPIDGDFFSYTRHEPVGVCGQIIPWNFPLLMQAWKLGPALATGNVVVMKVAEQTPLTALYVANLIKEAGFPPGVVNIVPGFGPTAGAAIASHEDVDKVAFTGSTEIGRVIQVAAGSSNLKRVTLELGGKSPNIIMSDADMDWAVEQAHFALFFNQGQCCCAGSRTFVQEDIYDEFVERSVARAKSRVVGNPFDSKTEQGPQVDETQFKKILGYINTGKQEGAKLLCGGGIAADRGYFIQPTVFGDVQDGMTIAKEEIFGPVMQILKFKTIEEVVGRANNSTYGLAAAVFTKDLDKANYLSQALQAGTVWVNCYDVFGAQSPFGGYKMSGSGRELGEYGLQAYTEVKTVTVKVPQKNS
HMAO-A, sequence (P21397 whole entry): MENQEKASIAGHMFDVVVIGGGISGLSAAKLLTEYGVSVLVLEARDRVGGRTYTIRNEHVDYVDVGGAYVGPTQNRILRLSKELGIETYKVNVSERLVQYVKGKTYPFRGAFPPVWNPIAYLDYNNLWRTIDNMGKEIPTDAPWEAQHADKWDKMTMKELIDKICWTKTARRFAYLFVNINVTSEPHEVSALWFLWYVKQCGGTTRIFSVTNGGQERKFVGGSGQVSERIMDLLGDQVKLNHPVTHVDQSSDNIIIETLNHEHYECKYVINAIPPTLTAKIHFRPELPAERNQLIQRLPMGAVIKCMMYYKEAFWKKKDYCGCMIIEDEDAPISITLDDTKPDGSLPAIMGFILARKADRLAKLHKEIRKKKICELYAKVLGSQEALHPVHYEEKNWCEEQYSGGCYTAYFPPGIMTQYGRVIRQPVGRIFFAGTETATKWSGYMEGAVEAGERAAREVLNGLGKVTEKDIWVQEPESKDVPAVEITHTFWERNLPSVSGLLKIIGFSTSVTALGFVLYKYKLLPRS

For orientation: pIC50 means the IC50 on a negative log10 scale, so that one unit is a factor of ten. Consider `O=C(NCc1ccc(-c2ccn(COP(=O)(O)O)c(=O)c2)cc1)c1c(Cl)cccc1Cl` [Compound 14, phosphoric acid mono-(4-{4-[(2,6-dichloro-benzoylamino)-methyl]-phenyl}-2-oxo-2H-pyridin-1-ylmethyl) ester], for which the “inhibition of cocaine cue reinstatement compared to vehicle” value is recorded as 30% in experiment [1] (2.5 mg-eq/kg oral, p>0.05, N.S.); 59% in experiment [1] (5 mg-eq/kg oral); 55% in experiment [1] (10 mg-eq/kg oral); 50% in experiment [1] (30 mg-eq/kg oral). Moreover, in experiment [1] (2.5 mg-eq/kg oral, lowest dose tested), the “effect on cocaine cue reinstatement versus vehicle” value is reported as “not significantly different from vehicle”. For the same compound, the pIC50 against HMAO-B was less than 3.89; against HMAO-A, less than 3.89; at recombinant human ALDH2, less than 5.00. Further, the “effect on number of nicotine infusions compared to vehicle” value with Male SD rats [2] (5 mg-eq/kg oral, 7 consecutive days) is listed as “ineffective”; in the experiment on Male SD rats [4] (5 mg-eq/kg oral) it was “ineffective”. For the same compound, the “inhibition of number of nicotine infusions compared to vehicle” value in the experiment on Male SD rats [2] (10 mg-eq/kg oral, 7 consecutive days) was 48%; with Male SD rats [2] (30 mg-eq/kg oral, 7 consecutive days), 62%; with Male SD rats [4] (10 mg-eq/kg oral) it was 51%; in the experiment on Male SD rats [4] (30 mg-eq/kg oral) it was 68%. The “tolerance to the therapeutic effect” value with Male SD rats [2] (7-day chronic oral administration, data not shown) was “no development of tolerance”. In addition, the “number of lever presses for alcohol” value in experiment [3] (10 mg-eq/kg oral) and in experiment [3] (30 mg-eq/kg oral) was “significantly decreased” in each case.
